What was measured:
Assay type in all cases: cell-based
Vcap cells = test: CTG cell proliferation assay on Vcap cells (compounds alone or in combination, 5 days); details: for viability at 0.1 µM / viability at 1 µM / viability at 10 µM: Homo sapiens, VCaP, 120 h, read-out: Survival rate of Vcap cells; for Vcap cell proliferation inhibition rate: 5 days
Protocol: In vitro test of the inhibition effect of the compound in combination with androgen receptor pathway modulators on the prostate cancer cell proliferation.
Inhibition effect of the compounds such as B101, B102, B103, B104, B105, B106, C111 and the like, androgen receptor pathway modulators, hormone compounds, alone or in combination with each other on the prostate cancer cell proliferation were tested on Vcap cells (androgen receptor (+) prostate cancer cells) (ATCC, catalogue number CRL-2876). The specific experimental operation was as follows: 5×10^3 Vcap cells per well were inoculated into 96-well plates with transparent bottom and white wall (Corning, catalogue number CLS3903) containing the specific medium, and were cultured in a 37° C., 5% CO2 incubator for 24 hours. The tested compounds and the androgen receptor pathway modulators were prepared to a 150 mM stocking solution with DMSO (Sigma, catalogue number 276855), diluted with culture medium to the desired concentrations (the final concentration of DMSO is 0.2%), and then added to each well, 2 wells/concentration, followed by being incubated in a 37° C., 5% CO2 incubator for 5 days. The tested compounds were used alone or in combination with other androgen receptor pathway modulators and/or hormone compounds respectively. […] After that, 100 μl of CellTiter-Glo® cell viability assay reagent (Promega, catalogue number G7570) was added to each well and mixed well on a vibrator for 10 minutes to induce cell lysis. The 96-well plate was placed at room temperature for 10 minutes, so as to stabilize its luminescence signal. A white bottom membrane was pasted on the bottom of the plate and the plate was tested using EnSpire.

LNCap cells = test: CTG cell proliferation assay on LNCap cells (method of Effect embodiment 1)
PSA (Prostate antigen) = test: PSA inhibition rate experiment (PSA secretion in supernatant of VCap cells); details: Homo sapiens, 120 h
Protocol: Cells were collected in exponential growth phase for viable cell count. The cell suspension was adjusted to 4.17×10E4/ml with the medium mentioned above. 120 μl of cell suspension was added to each well of a 96-well cell culture plateat, a final concentration of cells was 5000 cells/well. The cells were incubated overnight in a 37° C., 5% CO2 incubator.
10 mM stocking solution was prepared by dissolving each tested compound in DMSO. […] The final concentration of DMSO per well was 0.2%. The cells were incubated for 5 days in a 37° C., 5% CO2 incubator.
After 5 days' drug treatment, the cell supernatant of each well was collected, and centrifuged at 2000 r/min for 5 minutes, then transferred to a clean EP tube for PSA detection.
Wherein, Vsample is the PSA reading of the drug treatment group, and VDMSO is the average value of PSA of the solvent control group.

[1] = tested compound 0.1 μM in combination with 1 μM ARN-509
[2] = tested compound 0.1 μM in combination with 1 μM Abiraterone acetate
[3] = tested compound 0.1 μM in combination with 1 μM Enzalutamide
[4] = tested compound 0.1 μM in combination with 1 μM Galeterone
[5] = tested compound 0.1 μM in combination with 1 μM ODM-201
[6] = tested compound 1 μM in combination with 1 μM ARN-509
[7] = tested compound 1 μM in combination with 1 μM Abiraterone acetate
[8] = tested compound 1 μM in combination with 1 μM Enzalutamide
[9] = tested compound 1 μM in combination with 1 μM Galeterone
[10] = tested compound 1 μM in combination with 1 μM ODM-201
[11] = tested compound 10 μM in combination with 1 μM ARN-509
[12] = tested compound 10 μM in combination with 1 μM Abiraterone acetate
[13] = tested compound 10 μM in combination with 1 μM Enzalutamide
[14] = tested compound 10 μM in combination with 1 μM Galeterone
[15] = tested compound 10 μM in combination with 1 μM ODM-201

SMILES: Nc1cc(F)cc2c1CN(C1CCC(=O)NC1=O)C2=O (centres unmarked) [B101]
- viability at 0.1 µM (Vcap cells; tested compound alone): 77.7%
- viability at 1 µM (Vcap cells; tested compound alone, 1 μM): 65.4%
- viability at 10 µM (Vcap cells; tested compound alone): 64.7%
- Survival rate of Vcap cells (Vcap cells; [1]): 29.3%
- Survival rate of Vcap cells (Vcap cells; [2]): 61.8%
- Survival rate of Vcap cells (Vcap cells; [3]): 30.6%
- Survival rate of Vcap cells (Vcap cells; [4]): 38.6%
- Survival rate of Vcap cells (Vcap cells; [5]): 43.8%
- Survival rate of Vcap cells (Vcap cells; [6]): 24.3%
- Survival rate of Vcap cells (Vcap cells; [7]): 56.6%
- Survival rate of Vcap cells (Vcap cells; [8]): 25.2%
- Survival rate of Vcap cells (Vcap cells; [9]): 34.4%
- Survival rate of Vcap cells (Vcap cells; [10]): 37.1%
- Survival rate of Vcap cells (Vcap cells; [11]): 24.5%
- Survival rate of Vcap cells (Vcap cells; [12]): 52.9%
- Survival rate of Vcap cells (Vcap cells; [13]): 24.4%
- Survival rate of Vcap cells (Vcap cells; [14]): 32.5%
- Survival rate of Vcap cells (Vcap cells; [15]): 32.5%
- Survival rate of LNCap cells (LNCap cells; [1]): 86.7%
- Survival rate of LNCap cells (LNCap cells; [2]): 82.4%
- Survival rate of LNCap cells (LNCap cells; [3]): 59.3%
- Survival rate of LNCap cells (LNCap cells; [4]): 76.3%
- Survival rate of LNCap cells (LNCap cells; [6]): 46.3%
- Survival rate of LNCap cells (LNCap cells; [7]): 46.2%
- Survival rate of LNCap cells (LNCap cells; [8]): 34.1%
- Survival rate of LNCap cells (LNCap cells; [9]): 43.6%
- Survival rate of LNCap cells (LNCap cells; [11]): 32.4%
- Survival rate of LNCap cells (LNCap cells; [12]): 33.2%
- Survival rate of LNCap cells (LNCap cells; [13]): 27.1%
- Survival rate of LNCap cells (LNCap cells; [14]): 31.4%
- Survival rate of LNCap cells (LNCap cells; tested compound alone, 0.1 μM): 99.6%
- Survival rate of LNCap cells (LNCap cells; tested compound alone, 1 μM): 63%
- Survival rate of LNCap cells (LNCap cells; tested compound alone, 10 μM): 42.4%

SMILES: [2H][C@]1(N2Cc3c(N)cc(F)cc3C2=O)CCC(=O)NC1=O [B105]
- Vcap cell proliferation inhibition rate (Vcap cells; B105 or C111 0.05 μM alone): 17.4%
- Vcap cell proliferation inhibition rate (Vcap cells; B105 or C111 0.14 μM alone): 23.9%
- Vcap cell proliferation inhibition rate (Vcap cells; B105 or C111 1.23 μM alone): 26.3%
- Vcap cell proliferation inhibition rate (Vcap cells; B105 or C111 3.70 μM alone): 25.9%
- Vcap cell proliferation inhibition rate (Vcap cells; B105 or C111 11.11 μM alone): 27.0%
- Vcap cell proliferation inhibition rate (Vcap cells; B105 or C111 33.33 μM alone): 27.4%
- Vcap cell proliferation inhibition rate (Vcap cells; B105 or C111 100.00 μM alone): 25.1%
- Vcap cell proliferation inhibition rate (Vcap cells; B105 or C111 300.00 μM alone): 22.8%
- viability at 0.1 µM (Vcap cells; tested compound alone): 83.3%
- viability at 1 µM (Vcap cells; tested compound alone, 1 μM): 72.5%
- viability at 10 µM (Vcap cells; tested compound alone): 72.7%
- Survival rate of Vcap cells (Vcap cells; [1]): 30.6%
- Survival rate of Vcap cells (Vcap cells; [2]): 65.0%
- Survival rate of Vcap cells (Vcap cells; [3]): 31.6%
- Survival rate of Vcap cells (Vcap cells; [4]): 40.9%
- Survival rate of Vcap cells (Vcap cells; [5]): 43.3%
- Survival rate of Vcap cells (Vcap cells; [6]): 28.0%
- Survival rate of Vcap cells (Vcap cells; [7]): 57.1%
- Survival rate of Vcap cells (Vcap cells; [8]): 27.5%
- Survival rate of Vcap cells (Vcap cells; [9]): 36.7%
- Survival rate of Vcap cells (Vcap cells; [10]): 36.6%
- Survival rate of Vcap cells (Vcap cells; [11]): 27.0%
- Survival rate of Vcap cells (Vcap cells; [12]): 58.0%
- Survival rate of Vcap cells (Vcap cells; [13]): 27.5%
- Survival rate of Vcap cells (Vcap cells; [14]): 36.3%
- Survival rate of Vcap cells (Vcap cells; [15]): 32.2%
- Survival rate of LNCap cells (LNCap cells; [1]): 82.6%
- Survival rate of LNCap cells (LNCap cells; [2]): 83.7%
- Survival rate of LNCap cells (LNCap cells; [3]): 57.5%
- Survival rate of LNCap cells (LNCap cells; [4]): 73.4%
- Survival rate of LNCap cells (LNCap cells; [6]): 44.7%
- Survival rate of LNCap cells (LNCap cells; [7]): 47.9%
- Survival rate of LNCap cells (LNCap cells; [8]): 32%
- Survival rate of LNCap cells (LNCap cells; [9]): 40.6%
- Survival rate of LNCap cells (LNCap cells; [11]): 32.4%
- Survival rate of LNCap cells (LNCap cells; [12]): 31.7%
- Survival rate of LNCap cells (LNCap cells; [13]): 25.8%
- Survival rate of LNCap cells (LNCap cells; [14]): 30.6%
- Survival rate of LNCap cells (LNCap cells; tested compound alone, 0.1 μM): 102.9%
- Survival rate of LNCap cells (LNCap cells; tested compound alone, 1 μM): 61.5%
- Survival rate of LNCap cells (LNCap cells; tested compound alone, 10 μM): 40.8%

SMILES: CNC(=O)c1ccc(N2C(=S)N(c3ccc(C#N)c(C(F)(F)F)c3)C(=O)C2(C)C)cc1F [Enzalutamide, reference compound]
- Survival rate of LNCap cells (LNCap cells; tested compound alone, 0.1 μM): 101.5%
- Survival rate of LNCap cells (LNCap cells; tested compound alone, 1 μM): 70.5%
- Survival rate of LNCap cells (LNCap cells; tested compound alone, 1 μM, listed as enzalutamide): 70.5%
- Survival rate of LNCap cells (LNCap cells; tested compound alone, 10 μM): 59.3%
- inhibition at 0.5 µM (PSA (Prostate antigen)): 30.7%

SMILES: C[C@]12CC[C@H](O)CC1=CC[C@@H]1[C@@H]2CC[C@]2(C)C(n3cnc4ccccc43)=CC[C@@H]12 [Galeterone, reference compound]
- viability at 0.1 µM (Vcap cells; tested compound alone): 95.9%
- viability at 1 µM (Vcap cells; tested compound alone, 1 μM): 62.8%
- viability at 10 µM (Vcap cells; tested compound alone): 19.3%
- Survival rate of Vcap cells (Vcap cells; tested compound alone, 1 μM): 62.8%
- Survival rate of LNCap cells (LNCap cells; tested compound alone, 0.1 μM): 104.9%
- Survival rate of LNCap cells (LNCap cells; tested compound alone, 1 μM): 79%
- Survival rate of LNCap cells (LNCap cells; tested compound alone, 10 μM): 24.2%
